# Assay results reported in US20230312587A1, “PTERIDINONE COMPOUNDS AND USES THEREOF” (Vertex Pharmaceutical Incorporated, priority 2018, published 2023).
# Test system: β-catenin-TCF-mediated reporter transcription activity in Colo 205 cells
# Test: Colo 205 reporter assay (TCF/LEF luciferase)
# Type: cell-based
# Conditions: Colo 205 TCF/LEF luciferase reporter, five hours after addition of compound; read-out: TCF reporter Colo205 IC50
# Method in brief: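 Luciferase signal from a TCF/LEF-driven reporter, stably integrated in Colo 205 colon cancer cells, was measured 5 h after compound addition.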
row,IC50 [nM],Compound
1,1000 to 5000,"Cc1nc(N[C@H]2CO[C@H](COc3cc(F)c(F)c(F)c3)C2)nc2c1NC(=O)[C@H](C)N2C [Compound 302, (7S)-4,7,8-trimethyl-2-(((3R,5S)-5-((3,4,5-trifluorophenoxy)methyl)tetrahydrofuran-3-yl)amino)-7,8-dihydropteridin-6(5H)-one]"

# Same assay, conditions: Homo sapiens, COLO 205, 5 h, Colo 205 TCF/LEF luciferase reporter, five hours after addition of compound; read-out: TCF reporter Colo205 IC50
row,Compound,IC50 [nM]
1,"Cc1nc(NCc2cnn(Cc3cccnc3)c2)nc2c1NC(=O)[C@H](C)N2C [Compound 198, (7S)-4,7,8-trimethyl-2-(((1-(pyridin-3-ylmethyl)-1H-pyrazol-4-yl)methyl)amino)-7,8-dihydropteridin-6(5H)-one]",1000 to 5000
2,"Cc1nc(NCc2cnn(C3CCN(C(=O)c4cc(F)c(F)c(F)c4)CC3)c2)nc2c1NC(=O)[C@H](C)N2C [Compound 124, (7S)-4,7,8-Trimethyl-2-(((1-(1-(3,4,5-trifluorobenzoyl)piperidin-4-yl)-1H-pyrazol-4-yl)methyl)amino)-7,8-dihydropteridin-6(5H)-one]",300 to 1000
3,"Cc1nc(NCc2cnn([C@H]3C[C@H]3c3ccc(F)cc3)c2)nc2c1N(C)C(=O)[C@H](C)N2C [Compound 153, (7S)-2-(((1-((1S,2S)-2-(4-fluorophenyl)cyclopropyl)-1H-pyrazol-4-yl)methyl)amino)-4,5,7,8-tetramethyl-7,8-dihydropteridin-6(5H)-one]",< 300
4,"Cc1nc(NCc2cnn(Cc3cc(C(F)(F)F)n(C)n3)c2)nc2c1NC(=O)[C@H](C)N2C [Compound 190, (7S)-4,7,8-trimethyl-2-(((1-((1-methyl-5-(trifluoromethyl)-1H-pyrazol-3-yl)methyl)-1H-pyrazol-4-yl)methyl)amino)-7,8-dihydropteridin-6(5H)-one]",300 to 1000
5,"Cc1nc(N[C@H]2C[C@@H](CNc3cnc(C(F)(F)F)cn3)C2)nc2c1NC(=O)[C@H](C)N2C [Compound 714, (S)-4,7,8-trimethyl-2-((cis-3-(((5-(trifluoromethyl)pyrazin-2-yl)amino)methyl)cyclobutyl)amino)-7,8-dihydropteridin-6(5H)-one]",< 300
6,"COC1(C2C(=O)Nc3c(C)nc(NCc4cnn(Cc5cc(F)c(F)c(F)c5)c4)nc3N2C)CCC1 (stereo not drawn) [Compound 668, 7-(1-methoxycyclobutyl)-4,8-dimethyl-2-(((1-(3,4,5-trifluorobenzyl)-1H-pyrazol-4-yl)methyl)amino)-7,8-dihydropteridin-6(5H)-one]",< 300
7,"C=C1C(=O)Nc2c(C)nc(NCc3cnn(Cc4ccc(C(F)(F)F)nc4)c3)nc2N1C [Compound 749, 4,8-dimethyl-7-methylene-2-(((1-((6-(trifluoromethyl)pyridin-3-yl)methyl)-1H-pyrazol-4-yl)methyl)amino)-7,8-dihydropteridin-6(5H)-one]",1000 to 5000
8,"CC[C@H]1C(=O)Nc2cnc(NCc3cnn(Cc4ccc(C(F)(F)F)nc4)c3)nc2N1C(C)C [Compound 497, (7S)-7-ethyl-8-isopropyl-2-(((1-((6-(trifluoromethyl)pyridin-3-yl)methyl)-1H-pyrazol-4-yl)methyl)amino)-7,8-dihydropteridin-6(5H)-one]",300 to 1000
9,"Cc1nc(NCc2cnn([C@@H]3CCN(C4CCC(F)(F)CC4)C3)c2)nc2c1NC(=O)[C@H](C)N2C [Compound 127, (7S)-2-(((1-((R)-1-(4,4-difluorocyclohexyl)pyrrolidin-3-yl)-1H-pyrazol-4-yl)methyl)amino)-4,7,8-trimethyl-7,8-dihydropteridin-6(5H)-one]",300 to 1000
10,"C[C@H]1C(=O)Nc2cnc(NCc3cnn(CCc4ccc(F)c(F)c4)c3)nc2N1C [Compound 111, (7S)-2-(((1-(3,4-difluorophenethyl)-1H-pyrazol-4-yl)methyl)amino)-7,8-dimethyl-7,8-dihydropteridin-6(5H)-one]",300 to 1000

# Second part, the molecule after the results:
row,IC50 [nM],Compound
1,≥ 5000,"CO[C@H](C)[C@H]1C(=O)Nc2c(C)nc(N[C@H]3C[C@H](n4ccc(C(F)(F)F)n4)C3)nc2N1C [Compound 731, (S)-7-((R)-1-methoxyethyl)-4,8-dimethyl-2-((trans-3-(3-(trifluoromethyl)-1H-pyrazol-1-yl)cyclobutyl)amino)-7,8-dihydropteridin-6(5H)-one]"
2,< 300,"Cc1nc(NC2CN(C(=O)Cc3ccc(F)c(F)c3)C2)nc2c1NC(=O)[C@H](C(C)C)N2C [Compound 626, (S)-2-((1-(2-(3,4-difluorophenyl)acetyl)azetidin-3-yl)amino)-7-isopropyl-4,8-dimethyl-7,8-dihydropteridin-6(5H)-one]"
3,1000 to 5000,"Cc1nc(N[C@H]2C[C@H](NC(=O)Nc3cc(F)c(F)c(F)c3)C2)nc2c1NC(=O)[C@H](C)N2C [Compound 474, 1-(3,4,5-trifluorophenyl)-3-(trans-3-(((S)-4,7,8-trimethyl-6-oxo-5,6,7,8-tetrahydropteridin-2-yl)amino)cyclobutyl)urea]"
4,1000 to 5000,"Cc1nc(N[C@H]2C[C@@H](NC(=O)Cc3ccc(C(F)(F)F)nc3)C2)nc2c1NC(=O)[C@H](C(C)C)N2C [Compound 559, N-(cis-3-(((S)-7-isopropyl-4,8-dimethyl-6-oxo-5,6,7,8-tetrahydropteridin-2-yl)amino)cyclobutyl)-2-(6-(trifluoromethyl)pyridin-3-yl)acetamide]"
5,< 300,"Cc1nc(NCc2cnn(Cc3ccc(Cl)nc3)c2)nc2c1NC(=O)[C@H](C(C)C)N2C [Compound 414, (7S)-2-(((1-((6-chloropyridin-3-yl)methyl)-1H-pyrazol-4-yl)methyl)amino)-7-isopropyl-4,8-dimethyl-7,8-dihydropteridin-6(5H)-one]"
6,300 to 1000,"Cc1nc(N[C@H]2C[C@@H](Nc3ccc(OC(F)(F)F)cn3)C2)nc2c1NC(=O)[C@H](C)N2C [Compound 577, (S)-4,7,8-trimethyl-2-((cis-3-((5-(trifluoromethoxy)pyridin-2-yl)amino)cyclobutyl)amino)-7,8-dihydropteridin-6(5H)-one]"
7,300 to 1000,"Cc1nc(NC2CN(C(=O)CC3CC4CCC3C4)C2)nc2c1NC(=O)[C@H](C(C)C)N2C (stereo partly drawn) [Compound 623, (7S)-2-((1-(2-(bicyclo[2.2.1]heptan-2-yl)acetyl)azetidin-3-yl)amino)-7-isopropyl-4,8-dimethyl-7,8-dihydropteridin-6(5H)-one]"
8,< 300,"Cc1nc(NCc2cnn(Cc3ccc(C(F)(F)F)nc3)c2)nc2c1NC(=O)[C@H](CC(C)C)N2C [Compound 563, (S)-7-isobutyl-4,8-dimethyl-2-(((1-((6-(trifluoromethyl)pyridin-3-yl)methyl)-1H-pyrazol-4-yl)methyl)amino)-7,8-dihydropteridin-6(5H)-one]"
9,< 300,"COc1c(F)cc(O[C@H]2C[C@H](Nc3nc(C)c4c(n3)N(C)[C@@H](C)C(=O)N4)C2)cc1F [Compound 287, (7S)-2-((trans-3-(3,5-difluoro-4-methoxyphenoxy)cyclobutyl)amino)-4,7,8-trimethyl-7,8-dihydropteridin-6(5H)-one]"
10,300 to 1000,"Cc1nc(N[C@H]2C[C@H](Nc3cccc(C(F)(F)F)n3)C2)nc2c1NC(=O)[C@H](C(C)C)N2C [Compound 531, (S)-7-isopropyl-4,8-dimethyl-2-((trans-3-((6-(trifluoromethyl)pyridin-2-yl)amino)cyclobutyl)amino)-7,8-dihydropteridin-6(5H)-one]"
11,≥ 5000,"Cc1nc(NC2CN(S(=O)(=O)c3ccc(F)cc3)C2)nc2c1NC(=O)[C@H](C(C)C)N2C [Compound 592, (7S)-2-((1-((4-fluorophenyl)sulfonyl)azetidin-3-yl)amino)-7-isopropyl-4,8-dimethyl-7,8-dihydropteridin-6(5H)-one]"
12,300 to 1000,"Cc1nc(N[C@H]2C[C@@H](Sc3ccc(F)cc3)C2)nc2c1NC(=O)[C@H](C)N2C [Compound 304, (7S)-2-((cis-3-((4-fluorophenyl)thio)cyclobutyl)amino)-4,7,8-trimethyl-7,8-dihydropteridin-6(5H)-one]"
13,< 300,"Cc1nc(NCc2cnn(Cc3ccc(C(C)(C)C)nc3)c2)nc2c1NC(=O)[C@H](C(C)C)N2C [Compound 469, (S)-2-(((1-((6-(tert-butyl)pyridin-3-yl)methyl)-1H-pyrazol-4-yl)methyl)amino)-7-isopropyl-4,8-dimethyl-7,8-dihydropteridin-6(5H)-one]"
14,< 300,"Cc1nc(N[C@H]2C[C@@H](Oc3cnc(C(F)(F)F)nc3)C2)nc2c1NC(=O)[C@H](C(C)C)N2C [Compound 644, (S)-7-isopropyl-4,8-dimethyl-2-((cis-3-((2-(trifluoromethyl)pyrimidin-5-yl)oxy)cyclobutyl)amino)-7,8-dihydropteridin-6(5H)-one]"
15,< 300,"Cc1nc(N[C@H]2C[C@H](Oc3ccc(OCC(F)(F)F)nc3)C2)nc2c1NC(=O)[C@H](C)N2C [Compound 347, (7S)-4,7,8-trimethyl-2-((trans-3-((6-(2,2,2-trifluoroethoxy)pyridin-3-yl)oxy)cyclobutyl)amino)-7,8-dihydropteridin-6(5H)-one]"
16,< 300,"Cc1nc(NC2CN(Cc3cc(F)c(F)c(F)c3)C2)nc2c1NC(=O)[C@H](C(C)C)N2C [Compound 591, (S)-7-isopropyl-4,8-dimethyl-2-((1-(3,4,5-trifluorobenzyl)azetidin-3-yl)amino)-7,8-dihydropteridin-6(5H)-one]"
17,< 300,"Cc1nc(NCc2cnn(Cc3ccc(OC(F)F)nc3)c2)nc2c1NC(=O)[C@H](C(C)C)N2C [Compound 422, (7S)-2-(((1-((6-(difluoromethoxy)pyridin-3-yl)methyl)-1H-pyrazol-4-yl)methyl)amino)-7-isopropyl-4,8-dimethyl-7,8-dihydropteridin-6(5H)-one]"
18,1000 to 5000,"Cc1nc(N[C@H]2C[C@H](NC(=O)Nc3cc(F)c(F)cc3F)C2)nc2c1NC(=O)[C@H](C)N2C [Compound 478, 1-(2,4,5-trifluorophenyl)-3-(trans-3-(((S)-4,7,8-trimethyl-6-oxo-5,6,7,8-tetrahydropteridin-2-yl)amino)cyclobutyl)urea]"

# Same assay, conditions: Homo sapiens, COLO 205, 5 h, R-isomer at C2 (corresponding to C2 S-isomer); Colo 205 TCF/LEF luciferase reporter, 5 h; read-out: TCF reporter Colo205 IC50
row,IC50 [nM],Compound
1,1000 to 5000,CC[C@@H]1C(=O)Nc2c(C)nc(NCc3cnn(Cc4ccc(C(F)(F)F)nc4)c3)nc2N1C [Compound I-1635]
